Tests used:
[1] = molecular target: D(2) dopamine receptor (Rattus norvegicus) (UniProt P61169); test: The compound is evaluated for the affinity towards Dopamine receptor D2, using [3H]-spiperone as ligand on rat striatal membranes.
[2] = molecular target: D(1A) dopamine receptor (Rattus norvegicus) (UniProt P18901); test: The compound is evaluated for the affinity towards Dopamine receptor D1, using [3H]- SCH 23390 as ligand on rat striatal membranes.
Chain of D(1A) dopamine receptor (Rattus norvegicus) (P18901 whole entry): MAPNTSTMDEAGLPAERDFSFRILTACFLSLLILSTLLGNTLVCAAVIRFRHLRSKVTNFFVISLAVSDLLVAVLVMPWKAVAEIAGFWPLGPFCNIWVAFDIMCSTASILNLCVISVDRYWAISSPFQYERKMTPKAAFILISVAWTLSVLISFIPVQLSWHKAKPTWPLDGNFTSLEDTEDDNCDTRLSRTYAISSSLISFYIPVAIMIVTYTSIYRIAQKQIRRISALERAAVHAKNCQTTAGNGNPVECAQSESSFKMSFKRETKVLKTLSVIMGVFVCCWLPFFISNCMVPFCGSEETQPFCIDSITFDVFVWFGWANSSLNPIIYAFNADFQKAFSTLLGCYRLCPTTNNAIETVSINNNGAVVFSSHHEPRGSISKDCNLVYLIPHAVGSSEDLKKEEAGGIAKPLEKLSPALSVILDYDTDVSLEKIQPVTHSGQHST

Chain of D(2) dopamine receptor (Rattus norvegicus) (P61169 whole entry): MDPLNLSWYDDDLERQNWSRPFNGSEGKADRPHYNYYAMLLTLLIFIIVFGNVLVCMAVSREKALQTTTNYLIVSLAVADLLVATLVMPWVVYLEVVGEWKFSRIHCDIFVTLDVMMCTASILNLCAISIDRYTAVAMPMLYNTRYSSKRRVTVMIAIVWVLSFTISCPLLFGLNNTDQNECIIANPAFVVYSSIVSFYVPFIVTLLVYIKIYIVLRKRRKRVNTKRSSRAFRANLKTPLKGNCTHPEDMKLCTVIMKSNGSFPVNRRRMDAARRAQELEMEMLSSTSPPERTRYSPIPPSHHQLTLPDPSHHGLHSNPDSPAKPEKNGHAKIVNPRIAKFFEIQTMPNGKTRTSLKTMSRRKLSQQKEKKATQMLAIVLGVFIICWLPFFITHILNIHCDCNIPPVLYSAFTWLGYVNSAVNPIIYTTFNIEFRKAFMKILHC

Structure (SMILES): Oc1cc2c(cc1O)[C@H]1c3ccccc3CCN[C@@H]1CC2
- K0.5 [1]: 2220 nM
- K0.5 [2]: 2850 nM

Structure (SMILES): CN1CCc2ccccc2[C@@H]2c3cc(O)c(I)cc3CC[C@H]21
- K0.5 [1]: 2960 nM
- K0.5 [2]: 1380 nM

Structure (SMILES): Oc1cc2c(cc1O)[C@H]1c3ccccc3CN[C@@H]1CC2
- K0.5 [2]: 2.8 nM

Structure (SMILES): CN1Cc2ccccc2[C@@H]2c3cc(O)c(Br)cc3CC[C@H]21
- K0.5 [2]: 322 nM

Structure (SMILES): CN1CCc2ccccc2[C@@H]2c3cc(O)ccc3CC[C@H]21
- K0.5 [1]: > 10000 nM
- K0.5 [2]: 3950 nM

— ChEMBL document CHEMBL1130084, “Further definition of the D1 dopamine receptor pharmacophore: synthesis of trans-6,6a,7,8,9,13b-hexahydro-5H-benzo[d]naphth[2,1-b]azepines as rigid analogues of beta-phenyldopamine” (J Med Chem, 1997)
